Data: the NIST ThermoML archive (doi:10.1016/j.jct.2010.05.009)

Test: xn = mol fraction of the nth substance listed
Conditions: 101 kPa, Liquid; for mass density: Vibrating tube method; for viscosity: Capillary tube (Ostwald / Ubbelohde) method

CCC(C)(C)O [2-methylbutan-2-ol] + C1CCOC1
Conditions	mass density, 288.15 K [kg/m3]	mass density, 298.15 K [kg/m3]	mass density, 308.15 K [kg/m3]	viscosity, 298.15 K [mPa·s]	viscosity, 308.15 K [mPa·s]
x1 = 0.1028	–	870.63	859.92	0.5079	0.4359
x1 = 0.1791	–	862.93	852.42	0.5724	0.4592
x1 = 0.2676	–	854.87	844.57	0.6232	0.5449
x1 = 0.3601	–	847.22	837.11	0.7532	0.6428
x1 = 0.45	–	840.46	830.51	0.8859	0.747
x1 = 0.5402	–	834.19	824.37	1.064	0.8887
x1 = 0.6295	837.94	828.48	818.76	1.288	1.055
x1 = 0.7058	833.16	823.78	814.12	1.548	1.232
x1 = 0.8097	826.96	817.62	808.01	2.008	1.548
x1 = 0.8903	821.89	812.56	802.98	2.517	1.907
x1 = 0.9629	816.9	807.57	798.22	3.052	2.234
x1 = 1	814.01	804.88	795.52	3.478	2.504
